Source: article PMC117120 (BMC Biochemistry, 2002)
Where a chain is given by its changes, count along the chain named. Read-outs that look alike come from different tables or passages of the source.

How the values were obtained:
[1] = biological target: T1, Y142A mutant 5-HT3ASR (Mus musculus, UniProt P23979, Y143A); assay: Whole cell patch clamp, cells transfected with Y142A cDNA; assay type: cell-based; conditions: 5-HT concentrations of up to 1 mM
T1 sequence (P23979 24-483 isoform P23979-2 Y143A): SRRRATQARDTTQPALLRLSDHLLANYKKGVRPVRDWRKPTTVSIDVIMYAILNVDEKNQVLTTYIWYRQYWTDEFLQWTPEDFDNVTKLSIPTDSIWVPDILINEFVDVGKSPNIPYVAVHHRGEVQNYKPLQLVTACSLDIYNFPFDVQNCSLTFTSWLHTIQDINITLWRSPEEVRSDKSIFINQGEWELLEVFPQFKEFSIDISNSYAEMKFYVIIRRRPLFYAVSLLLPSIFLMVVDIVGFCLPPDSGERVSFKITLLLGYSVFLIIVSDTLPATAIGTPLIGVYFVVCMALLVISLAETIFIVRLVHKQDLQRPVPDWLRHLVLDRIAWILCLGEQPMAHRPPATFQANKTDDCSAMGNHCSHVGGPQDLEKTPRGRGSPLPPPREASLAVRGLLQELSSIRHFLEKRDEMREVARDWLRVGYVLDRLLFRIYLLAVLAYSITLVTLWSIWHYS

[2] = biological target: T2, Y140A mutant 5-HT3ASR (Mus musculus, UniProt P23979, Y141A); assay: Whole cell patch clamp, cells transfected with Y140A cDNA; assay type: cell-based; conditions: 5-HT concentrations of up to 1 mM
T2 sequence (P23979 24-483 isoform P23979-2 Y141A): T1 sequence (P23979 24-483 isoform P23979-2 Y143A) with Y118A, A120Y

[3] = biological target: T3, wt 5-HT3ASR (Mus musculus, UniProt P23979); conditions: for response amplitude: 4 s, representative trace
T3 sequence (P23979 24-483 isoform P23979-2 limits assumed): T1 sequence (P23979 24-483 isoform P23979-2 Y143A) with A120Y

[4] = biological target: T4, Y152A mutant 5-HT3ASR (Mus musculus, UniProt P23979, Y153A); assay: Whole cell patch clamp, tsA201 cells transfected with Y152A cDNA; assay type: cell-based; conditions: for response amplitude: 8 s, representative trace
T4 sequence (P23979 24-483 isoform P23979-2 Y153A): T1 sequence (P23979 24-483 isoform P23979-2 Y143A) with A120Y, Y130A

Q: How did the “whole cell response to 5-HT” value [1] turn out when `NCCc1c[nH]c2ccc(O)cc12` [5-HT, serotonin] was run?
A: no responses

Q: And the “whole cell response to 5-HT” value [2]?
A: no responses

Q: What about the desensitization [3] of the same compound?
A: desensitized rapidly

Q: And the “time to peak response” value [3]?
A: less than 80 ms

Q: And the response amplitude ([3]; 0.3 μM 5-HT)?
A: 0.03 nA

Q: What about the response amplitude ([3]; 1.0 μM 5-HT) of the same compound?
A: 0.96 nA

Q: What about the response amplitude ([3]; 3.0 μM 5-HT) of the same compound?
A: 2.5 nA

Q: And the response amplitude ([3]; 30.0 μM 5-HT)?
A: 4.4 nA

Q: And the response amplitude ([3]; 100.0 μM 5-HT)?
A: 3.9 nA

Q: And the “time for response to plateau” value [4]?
A: several seconds

Q: And the response amplitude ([4]; 3.0 μM 5-HT)?
A: 0.10 nA

Q: What about the response amplitude ([4]; 100 μM 5-HT) of the same compound?
A: 0.14 nA

Q: What about the response amplitude ([4]; 300.0 μM 5-HT) of the same compound?
A: 0.57 nA

Q: And the response amplitude ([4]; 1.0 mM 5-HT)?
A: 1.0 nA

Q: And the desensitization ([4]; during the 8 s perfusion time)?
A: no desensitization
